Experimental data taken from patent publication US7893199B2, “Peptides having neutrophil-stimulating activity” (National University Corporation Gunma University, priority 2006, dated 2011).
Where no end group is shown, it is not given here. The star is where a group is joined. Biotin = O=C1N[C@H]2[C@H](CS[C@H]2CCCCC(=O)*)N1

How the values were obtained:
[1] = tested on: G protein in the differentiated HL-60 cell membrane fraction; assay: G protein activation ability (GTP hydrolysis) in cell membrane fraction; assay type: biochemical, human
Procedure: (4) Measurement of G Protein Activation Ability
The cells were collected by centrifuging the suspension of the differentiated HL-60 cells (1,000 rpm, 5 minutes, 4° C.). After that, the following operation was repeated three times to wash the cells: ice-cooled PBS was added to the cells; the mixture was suspended by inversion; and the mixture was centrifuged (1,000 rpm, 5 minutes, 4° C.). Then, the precipitated cells were suspended in a buffer for preparing a cell membrane fraction (20 mM Tris-HCl, 250 mM sucrose, 1.5 mM MgCl2, 3 mM benzamidine hydrochloride monohydrate, 1 μM leupeptin, 1 μM PMSF, 2 μg/ml trypsin inhibitor, pH 7.5) and a cell homogenate was prepared using nitrogen pressing-depressing type cell homogenizing apparatus (nitrogen pressure: 350 psi). After that, the resultant was ultracentrifuged (20,000 g, 4° C., 30 minutes) to remove the supernatant, and the precipitate was suspended in a membrane fraction buffer (20 mM Tris-HCl, 1 mM EDTA, 1 mM DTT, 77.5 mTIU/ml aprotinin, pH 7.5) and used as a cell membrane fraction. After dispensed, the cell membrane fraction was stored at −80° C. The activity of the G protein was quantified using the activity to hydrolyze GTP to GDP as an index. […] The mixture was centrifuged (15,000 rpm, 1 minute, 4° C.), and the radioactivity of the supernatant was measured.

bovine Gi1-G protein = molecular target: T1, bovine Gi1-G protein (Bos taurus, UniProt P63097); assay: G protein activation ability (GTP hydrolysis) with purified Gi1; assay type: biochemical
T1 construct: made in house; host or cells: E. coli

[2] = tested on: differentiated HL-60 cells; assay: migration activity (Chemotaxis Index) of differentiated HL-60 cells; assay type: cell-based, human
Procedure: (3) Measurement of Migration Activity
The cells were collected by centrifuging the suspension of the differentiated HL-60 cells (1,000 rpm, 5 minutes, 4° C.). After that, the following operation was repeated three times to wash the cells: 10% FBS-RPMI1640 was added to the cells; the mixture was suspended by inversion; and the mixture was centrifuged again (1,000 rpm, 5 minutes, 4° C.). Then, a medium (10% FBS-RPMI1640) was added so that a cell density was 4×10^6 cells/ml, thereby a cell suspension was prepared. Subsequently, 1 ml of each peptide solution (dissolved in 10% FBS-RPMI 1640) was transferred to each well of a 24-well plate, and the plate was incubated at 37° C. for 20 minutes. After that, 500 μl of the cell suspension (2×10^6 cells) were put in Chemotaxicell (KURABO […] LTD., 3 μm) and the Chemotaxicell was set in a plate, followed by incubation in the presence of 5% CO2 at 37° C. for 1 hour. Then, the Chemotaxicell was removed and the solution in each well of the plate was pipetted. The cells migrated to the plate side was suspended well and the number of the cells were measured. Note that the migration activity by the peptide was represented by a ratio of the number of the cells to the number of the cells passing the Chemotaxicell at the time of non-stimulation (Chemotaxis Index, CI).

[3] = tested on: HL-60 cells differentiated into the neutrophil-like cells; assay: β-hexosaminidase-secreting activity of neutrophil-like differentiated HL-60 cells; assay type: cell-based, human; conditions: differentiated HL-60 cells; read-out: EC50, β-hexosaminidase-secreting activity
Description: (1) Culture of Cell and Differentiation Into Neutrophil-like Cell
In this time, the cells were subcultured at a cell density of 1.0×10^5 cells/ml to 1.5×10^6 cells/ml, the number of cells was counted using a microscope, and the state of the cells was also confirmed.
The HL-60 cells were differentiated into neutrophil-like cells by setting the cell density in the flask to about 1.0×10^6 cells/ml, adding dibutylyl-cAMP (db-cAMP) as a differentiation-inducing agent so as to have a final concentration of 500 μM, and incubating the cells in the presence of CO2 at 37° C. for 3 days.
(2) Stimulation of Cell and Measurement of β-Hexosaminidase-secreting Activity
The cells were collected by centrifuging the suspension of the differentiated HL-60 cells (1,000 rpm, 5 minutes, 4° C.). After that, the following operation was repeated three times to wash the cells: Hepes buffered Hank's solution (HBHS) containing ice-cooled 0.1% BSA (1.2 mM CaCl2.2H2O, 5.4 mM KCl, 0.44 mM KH2PO4, 0.49 mM MgCl2.6H2O, 0.41 mM MgSO4.7H2O, 136.9 mM NaCl, 0.34 mM Na2HPO4, 10 mM Hepes, 4.2 mM NaHCO3, 5.5 mM D-glucose, pH 7.4) was added to the cells; the mixture was suspended by inversion; and the mixture was centrifuged again (1,000 rpm, 5 minutes, 4° C.). Subsequently, HBHS was added so that the mixture has a cell density of 5.6×10^6 cells/ml and suspended. Then, DNase I and cytochalasin B were each added so as to have a final concentration of 5 μg/ml, and the cell suspension was dispensed in an amount of 90 μl (5×10^5 cells) on ice. […] After the cell stimulation for 10 minutes, 100 μl of an ice-cooled stop solution (25 mM Tris, 123 mM NaCl, 2.7 mM KCl, pH 7.4) were added, and immediately, the mixture was centrifuged (5,000 rpm, 1 minute, 4° C.). 200 μl of the obtained supernatant were transferred to a new tube.
The amount of β-hexosaminidase released in the supernatant of the reaction solution was measured by an enzyme reaction using p-nitrophenyl-N-acetyl-μ-D-glucosaminide as a substrate (Non-patent Document 12). That is, the supernatant of the reaction solution was dispensed in an amount of 90 μl to a 96-well plate. 60 μl of a substrate solution (10 mM p-nitrophenyl-N-acetyl-μ-D-glucosaminide, 40 mM citrate, 70 mM Na2HPO4, pH 4.5) were added to each well, followed by incubation at 37° C. for 1 hour. After the reaction, 100 μl of a stop solution (0.4 M glycine, pH 10.7) were added to each well and a color of the released p-nitrophenol was developed. The color development was measured with a plate reader at adsorption at 405 nm (reference: 492 nm). The all amount of β-hexosaminidase contained in the cells was quantified by treating the cells with Triton X-100 having a final concentration of 0.05%. In addition, the amount of β-hexosaminidase secreted by stimulation of 10 μM fMLP was also measured, and the ratio of the secretion amount by stimulation with each peptide to the above sectretion amount by stimulation with fMLP.

[4] = molecular target: T2, heat shock 70 kDa protein 8 isoform 1 (SEQ ID NO: 52) (Homo sapiens, UniProt P11142); assay: chemical crosslinking experiment, streptavidin beads, electrophoresis (receptor identification); assay type: binding; conditions: peptide 10 μM; for bands of specifically binding proteins in SDS gel electrophoresis: differentiated HL-60 cell lysate, silver stain
T2 construct: endogenous in cells; host or cells: neutrophil-like differentiated HL-60 cells
Procedure: Then, in order to identify directly the receptor molecules to which these functional peptides are bound, the following chemical crosslinking experiment was performed. That is, the HL-60 cells differentiated into the neutrophil-like cells were suspended in HBHS (not containing 0.1% BSA). The suspension was centrifuged (1,000 rpm, 5 minutes, 4° C.) and the supernatant was removed. The cells were suspended again in the HBHS not containing BSA so as to have the cell density of 5.6×10^6 cells/ml. The obtained cell suspension was preincubated at 37° C. for 10 minutes at first, and 1/10 volume of mitocryptide-3 and -5, [Cys^0]mitocryptide-3, [Cys^0]mitocryptide-5, [Cys^24]mitocryptide-3, and peptides obtained by introducing biotin into the N terminals thereof (N-biotinyl-mitocryptide-3, N-biotinyl-mitocryptide-5, N-biotinyl-[Cys^0]mitocryptide-3, N-biotinyl-[Cys^0]mitocryptide-5, and N-biotinyl-[Cys^24]mitocryptide-3) were added to have the final concentration of 10 μM, followed by incubation at 37° C. for 30 minutes. After that, the cell suspension was centrifuged (5,000 rpm, 4° C., 1 minute) and the supernatant was removed. The resultant cells were resuspended in HBHS not containing BSA and centrifuged again to wash the cells. 1 ml of a buffer for dissolving cells (100 mM NaCl, 20 mM Tris-HCl, 1 mM EDTA, 77.5 mTIU/ml aprotinin, 1 μM leupeptin, 1 μg/ml pepstatin A, 1 μg/ml phosphoramidone, 1% CHAPS, pH 7.5) with respect to 1 ml of the original cell suspension was added to the cell precipitate, and the mixture was incubated at 4° C. for 30 minutes to dissolve the cells, thereby a cell lysate was prepared. The cell lysate was centrifuged (15,000 rpm, 4° C., 15 minutes) and the supernatant was centrifuged again in the same condition. The obtained supernatant was incubated with streptavidin beads at 4° C. for 30 minutes, then, the beads were washed by centrifugation with the buffer for dissolving cells three times. Further, the beads were treated by heat at 100° C. for 10 minutes in the buffer for dissolving cells, and the mixture was centrifuged. The obtained supernatant was subjected to an SDS gel electrophoresis to separate the contained protein. Then, the gel was stained by silver stain method, thereby the proteins were analyzed. […] As a result, two specific spots were detected (FIG. 15-A). Therefore, the protein was extracted and degraded with trypsin, and then, the degraded proteins were analyzed by mass spectrometry.

[5] = tested on: neutrophil-like differentiated HL-60 cells; assay: binding of biotinylated peptides to cell surfaces (streptavidin-Alexa488 fluorescence microscopy); set-up: species or system human; conditions: peptide 10 μM, 37° C., 30 minutes
Procedure: (§1) Thus, it was confirmed that the synthesized functional peptide derivatives had the activities. Therefore, subsequently, in order to identify the binding sites of the functional peptides in the cells, these peptides (final concentration 10 μM) were incubated with the neutrophil-like differentiated HL-60 cells or undifferentiated HL-60 cells prepared in Example 3-(3) at 37° C. for 30 minutes. After that, the obtained cell suspension was centrifuged (1,000 rpm, 5 minutes, 4° C.) and the supernatant was removed. Further, HBHS was added and the mixture was centrifuged to wash the cells. Then, the cells were resuspended in HBHS. A streptavidin-HBHS labeled with a fluorescence, Alexa488 (Molecular probe, Invitrogen Corporation.) was added thereto, and the mixture was centrifuged, and the supernatant was removed. Further, the following operation was repeated three times to wash the cells: HBHS was added and the mixture was centrifuged.

[6] = tested on: undifferentiated HL-60 cells; assay: as above; set-up: species or system human; conditions: peptide 10 μM, 37° C., 30 minutes
Procedure: as §1

T2 sequence (P11142 whole entry, canonical isoform): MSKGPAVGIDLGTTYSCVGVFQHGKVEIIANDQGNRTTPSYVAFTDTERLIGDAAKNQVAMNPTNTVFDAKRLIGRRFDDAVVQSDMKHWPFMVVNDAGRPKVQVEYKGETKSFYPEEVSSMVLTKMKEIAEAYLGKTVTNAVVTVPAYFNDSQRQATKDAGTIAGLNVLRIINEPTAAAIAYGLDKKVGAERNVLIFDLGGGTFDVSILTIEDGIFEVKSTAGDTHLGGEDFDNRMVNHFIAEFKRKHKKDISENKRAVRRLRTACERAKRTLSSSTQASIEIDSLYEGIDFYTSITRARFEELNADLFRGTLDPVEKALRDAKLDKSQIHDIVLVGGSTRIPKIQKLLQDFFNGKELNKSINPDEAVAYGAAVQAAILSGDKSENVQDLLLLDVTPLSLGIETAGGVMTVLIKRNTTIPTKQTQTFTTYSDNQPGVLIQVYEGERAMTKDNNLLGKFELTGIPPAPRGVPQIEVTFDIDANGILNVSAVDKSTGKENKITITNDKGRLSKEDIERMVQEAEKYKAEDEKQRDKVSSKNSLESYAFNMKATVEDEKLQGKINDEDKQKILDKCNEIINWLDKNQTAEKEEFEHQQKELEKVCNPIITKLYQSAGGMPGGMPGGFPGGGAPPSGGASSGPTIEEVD
T1 sequence (P63097 whole entry): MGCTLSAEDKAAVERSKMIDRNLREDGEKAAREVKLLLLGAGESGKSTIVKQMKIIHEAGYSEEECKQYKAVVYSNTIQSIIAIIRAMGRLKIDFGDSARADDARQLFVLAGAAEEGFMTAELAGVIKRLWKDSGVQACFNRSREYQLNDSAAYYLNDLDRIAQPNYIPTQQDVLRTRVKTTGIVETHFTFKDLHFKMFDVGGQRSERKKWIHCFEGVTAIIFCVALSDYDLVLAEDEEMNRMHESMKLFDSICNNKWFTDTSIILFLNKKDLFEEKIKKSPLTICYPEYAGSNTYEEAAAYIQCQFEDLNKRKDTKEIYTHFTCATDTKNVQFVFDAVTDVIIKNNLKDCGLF

In the case of MFPLVKSALNRLQVRSIQQTMARQ [No. 015], the “activation of G protein” value [1] is reported as “activated”, the “activation of purified Gi1 protein” value (bovine Gi1-G protein) is reported as “activated” and the “concentration of migration activity compared with that of β-hexosaminidase-secreting activity” value [2] is reported as “confirmed at the almost same concentration”. The “desensitization of migration activity with increasing concentration of the peptide” value [2] was “subjected to desensitization completely” and the EC50 [3] was 380 nM.
“N-biotinyl-[Cys^0]mitocryptide-3: [Cys^0]mitocryptide-3 with biotin introduced into the N terminal (Biotin-CMLWNLLALHQIGQRTISTASHRH)” was tested, and the “bands of specifically binding proteins in SDS gel electrophoresis” value [4] was “five bands indicating specific binding”, the “binding to cell surfaces” value [5] was “bound to the surfaces of the neutrophil-like differentiated HL-60 cells specifically” and the “binding to cell surfaces” value [6] was “less bound to the surfaces of the undifferentiated HL-60 cells”.
For “N-biotinyl-[Cys^0]mitocryptide-5: [Cys^0]mitocryptide-5 with biotin introduced into the N terminal (Biotin-CMFPLVKSALNRLQVRSIQQTMARQ)”, the “binding of heat shock 70 kDa protein 8 isoform 1 to the peptide” value ([4]; differentiated HL-60 cells) was “bound” and the “binding to cell surfaces” value [5] was “bound to the surfaces of the cells specifically”.
“N-biotinyl-Cys-Gln-Leu-Trp-Ala-Val-Gly-Ser-Phe-Met-NH2 (Biotin-CQLWAVGSFM-NH2; SMILES CSCC[C@H](NC(=O)[C@H](Cc1ccccc1)NC(=O)[C@H](CO)NC(=O)CNC(=O)[C@@H](NC(=O)[C@H](C)NC(=O)[C@H](Cc1c[nH]c2ccccc12)NC(=O)[C@H](CC(C)C)NC(=O)[C@H](CCC(N)=O)NC(=O)[C@H](CS)NC(=O)CCCC[C@@H]1SC[C@@H]2NC(=O)N[C@@H]21)C(C)C)C(N)=O) [reference compound]” was tested, and the “binding to cell surfaces” value [5] was “no binding was confirmed at all”.
For “N-biotinyl-[Cys^24]mitocryptide-3: [Cys^24]mitocryptide-3 with biotin introduced into the N terminal (Biotin-MLWNLLALHQIGQRTISTASHRHC)”, the “bands of specifically binding proteins in SDS gel electrophoresis” value [4] was “five bands indicating specific binding”.
